Here are results for two molecules from patent publication US20140221374A1, “RAF KINASE INHIBITORS” (Ruga Corporation, priority 2011, published 2014).

Assay [1] deals with V600E-mutated B-RAF (Homo sapiens, UniProt P15056, V600E). Briefly: In vitro assay for inhibition of mutant B-RAF kinase (recombinant V600E-mutated B-RAF, MEK (K97R) substrate). The note with it: 10 nM recombinant V600E-mutated B-RAF. The class given is biochemical. How it is done: (§1) The ability of compounds described herein to inhibit RAF kinase activity were determined from biochemical kinase inhibition assays using recombinant RAF proteins as known in the art.
V600E-mutated B-RAF, sequence (P15056 whole entry V600E): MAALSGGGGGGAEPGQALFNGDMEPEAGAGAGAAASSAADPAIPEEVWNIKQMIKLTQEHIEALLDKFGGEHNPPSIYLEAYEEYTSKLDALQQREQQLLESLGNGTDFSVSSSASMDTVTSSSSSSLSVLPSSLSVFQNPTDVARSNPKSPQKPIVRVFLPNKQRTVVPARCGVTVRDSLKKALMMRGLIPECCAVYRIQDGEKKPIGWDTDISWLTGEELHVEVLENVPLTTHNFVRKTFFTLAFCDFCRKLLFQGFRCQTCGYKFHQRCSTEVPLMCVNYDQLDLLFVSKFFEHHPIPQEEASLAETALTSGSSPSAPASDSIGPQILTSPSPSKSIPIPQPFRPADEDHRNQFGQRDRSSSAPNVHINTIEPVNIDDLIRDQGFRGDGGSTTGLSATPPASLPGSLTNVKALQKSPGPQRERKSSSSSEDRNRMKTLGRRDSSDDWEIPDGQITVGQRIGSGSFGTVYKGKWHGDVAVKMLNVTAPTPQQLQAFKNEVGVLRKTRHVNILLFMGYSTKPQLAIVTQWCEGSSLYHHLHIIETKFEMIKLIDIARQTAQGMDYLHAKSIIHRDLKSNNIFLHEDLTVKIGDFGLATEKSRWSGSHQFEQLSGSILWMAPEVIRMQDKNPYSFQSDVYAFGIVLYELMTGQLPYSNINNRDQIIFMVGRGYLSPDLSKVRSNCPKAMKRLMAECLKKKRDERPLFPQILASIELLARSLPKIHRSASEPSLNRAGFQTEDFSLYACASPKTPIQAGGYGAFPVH
Solutions of varying concentrations of test compounds or vehicle were added to 10 nM recombinant V600E-mutated B-RAF proteins incubated in the presence of different concentrations of ATP and […] (K97R) as substrate, as previously described (Wilhelm, S. M., et al., Cancer Res., 64: 7099-7109, 2004; Mason, C. S., et al.; EMBO J. 18: 2137-2.148, 1999; Marais, R., et al., J. Biol. Chem., 272: 4378-4383, 1997). At least triplicate determinations for each individual test compound concentration were made and data plotted as mean±standard deviation relative to the control vehicle.

In assay [2] the test system is A375 cells (V600E activated B-RAF). Briefly: In vitro tumor cell growth inhibition, MTT, 72 hours. The class given is cell-based. The note with it: Homo sapiens, A-375, 72 hours incubation. How it is done: Briefly, growth inhibition of cells containing V600E activated B-RAF (A375, Colo205) versus cell lines with wild-type B-RAF (A431) were measured under anchorage-dependent conditions using MTT (3-(4,5-dimethylthiazol-2-yl)-2,5-diphenyltetrazolium bromide), following 72 hours incubation with either compound or vehicle, as previously described (Haass, N. K., et al., Clinical Cancer Res., 14: 230-239, 2008): Cell lines are obtained from the American Type Tissue Culture Collection (Maryland, USA) and cultured in media containing heat-inactivated 10% fetal bovine serum. Cell cultures were also maintained in 10 U/mL, penicillin, 100 μg/mL streptomycin and 2 mM glutamine. At least triplicate determinations for each individual test compound concentration were made and data plotted as mean±standard deviation relative to the control vehicle.

Assay [3] addresses wild-type C-RAF (Homo sapiens, UniProt P04049). Briefly: In vitro assay for inhibition of RAF kinases (recombinant wild-type C-RAF, MEK (K97R) substrate). The class given is biochemical. Particulars: 10 nM recombinant wild-type C-RAF. How it is done: as §1
Solutions of varying concentrations of test compounds or vehicle were added to 10 nM recombinant wild-type A-RAF, wild-type B-RAF, or wild-type C-RAF proteins incubated in the presence of different concentrations of ATP and 1 μM MEK (K97R) as substrate, as previously described (Wilhelm, S. M., et al., Cancer Res., 64: 7099-7109, 2004; Mason, C S., et al., EMBO J. 18: 2137-2148, 1999; Marais, R., et al., J. Biol. Chem., 272: 4378-4383, 1997). At least triplicate determinations for each individual test compound concentration were made and data plotted as mean±standard deviation relative to the control vehicle.

Each structure is given as a SMILES string.

wild-type C-RAF, sequence (P04049 whole entry): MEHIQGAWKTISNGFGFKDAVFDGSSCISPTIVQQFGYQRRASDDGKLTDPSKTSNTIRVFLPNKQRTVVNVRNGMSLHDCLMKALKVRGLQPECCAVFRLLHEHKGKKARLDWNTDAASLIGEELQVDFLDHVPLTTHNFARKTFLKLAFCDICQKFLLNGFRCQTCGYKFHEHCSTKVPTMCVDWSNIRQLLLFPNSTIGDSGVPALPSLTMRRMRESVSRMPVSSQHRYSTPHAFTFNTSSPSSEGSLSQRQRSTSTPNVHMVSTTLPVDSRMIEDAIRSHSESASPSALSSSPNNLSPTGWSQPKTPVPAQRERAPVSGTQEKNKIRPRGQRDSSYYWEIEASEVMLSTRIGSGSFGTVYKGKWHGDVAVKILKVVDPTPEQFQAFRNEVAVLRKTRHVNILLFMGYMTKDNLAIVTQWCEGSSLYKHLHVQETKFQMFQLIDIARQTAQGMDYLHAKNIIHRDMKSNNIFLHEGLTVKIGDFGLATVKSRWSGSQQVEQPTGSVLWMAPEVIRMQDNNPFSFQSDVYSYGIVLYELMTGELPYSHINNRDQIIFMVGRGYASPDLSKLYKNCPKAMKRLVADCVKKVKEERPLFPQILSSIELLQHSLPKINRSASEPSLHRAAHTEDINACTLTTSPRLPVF

Consider `Cc1ccc(NC(=O)Nc2cccc(-c3sc(C)nc3-c3ccncc3)c2)cc1` [Example 1, 1-[3-(2-Methyl-4-pyridin-4-yl-thiazol-5-yl)-phenyl]-3-p-tolyl-urea], for which the concentration for half-maximal inhibition (IC50) – broadly, the point on the concentration scale where inhibition reaches its midpoint – in assay [1] was at most 0.1 µM; in assay [2], above 10 µM; in assay [3] it was 1 to 10 µM.
Taken in the same sequence, the figures for `Cc1ccc(NC(=O)Nc2cc(-c3sc(C)nc3-c3ccncc3)ccc2F)cc1` [Example 7, 1-(2-fluoro-5-(2-methyl-4-(pyridin-4-yl)thiazol-5-yl)phenyl)-3-p-tolylurea] were at most 0.1 µM, 1 to 10 µM and 0.1 to 1 µM.
